# Reference: patent US20150307491A1, “SUBSTITUTED PYRIDOPYRAZINES AS SYK INHIBITORS” (HUTCHISON MEDIPHARMA LIMITED, priority 2012, published 2015)
# Test system: RBL-2H3 cells
# Assay: IgE-induced Beta-hexosaminidase secretion in RBL-2H3 cells
# Assay type: cell-based
# Conditions: Rattus norvegicus; RBL-2H3 cells sensitized with SPE-7, stimulated with DNP-BSA
# Experimental: For the determination of IgE-induced Beta-hexosaminidase secretion, RBL-2H3 cells (SIBS) are seeded in 96 well plates at 4×10^4 cells per well and incubated in MEM media with 15% FBS and Glutamine ([…]) for 4 hours and sensitized with 0.5 ug/ml of SPE-7 overnight. Cells are washed 3 times with Tyrode's buffer and incubated in the presence or absence of various concentrations of the testing compound for 20 min at 37° C., 5% CO2. Cells are stimulated by adding 10 μL of DNP-BSA solution (150 ng/mL) to each well and incubating for 45 minutes at 37° C., 5% CO2. Then, 45 μL of the supernatant is taken and incubated with 100 μL of 1 mM 4-Nitrophenyl N-acetyl-β-D-glucosaminide (Sigma, Cat. No. N9376), which is diluted in 0.05 M citrate buffer (pH 4.5), for 1.5 hr at 37° C. The reactions are quenched by adding 185 μL of 0.05 M sodium carbonate buffer (pH 10.0). Plates are read at 405 nm on Multiskan (MK 3).
row,Structure (SMILES),IC50 [nM]
1,Cc1cc(-c2cc3nccnc3c(OC[C@@H]3CN(S(C)(=O)=O)CCO3)n2)ccc1N(C)C [Compound 134],1 to 100
2,CCN1CCN(c2ccc(-c3cc4nccnc4c(OC[C@@H]4CN(C(=O)C(F)F)CCO4)n3)cc2)CC1 [Compound 17],1 to 100
3,CN1CCN(c2ccc(-c3cc4nccnc4c(OC[C@@H]4CN(C(=O)C(F)F)CCO4)n3)cc2)CC1 [Compound 16],1 to 100
4,CS(=O)(=O)N1CCO[C@H](COc2nc(-c3ccc(N4CCC(F)(F)CC4)cc3)cc3nccnc23)C1 [Compound 20],1 to 100
5,CS(=O)(=O)N1CCO[C@H](COc2nc(-c3ccc(N4CCOCC4)c(F)c3)cc3nccnc23)C1 [Compound 7],100 to 1000
6,COc1ccc(-c2cc3nccnc3c(OC[C@@H]3CN(S(C)(=O)=O)CCO3)n2)cc1 [Compound 38],100 to 1000
7,CNC(=O)N1CCO[C@H](COc2nc(-c3ccc(N(C)C)cc3)cc3nccnc23)C1 [Compound 137],1 to 100
8,CN(C)c1ccc(-c2cc3nccnc3c(O[C@@H]3CCOC3)n2)cc1 [Compound 123],1 to 100
9,CNC(=O)CS(=O)(=O)N1CCO[C@H](COc2nc(-c3ccc(N(C)C)cc3)cc3nccnc23)C1 [Compound 99],100 to 1000
10,CN1CCN(c2ccc(-c3cc4nccnc4c(OC[C@@H]4CN(S(C)(=O)=O)CCO4)n3)cc2)CC1 [Compound 13],1 to 100
11,CNc1ccc(-c2cc3nccnc3c(OC[C@@H]3CN(S(C)(=O)=O)CCO3)n2)cc1 [Compound 36],1 to 100
12,CN(C)c1ccc(-c2cc3nccnc3c(OC[C@@H]3CN(C(=O)c4ncc[nH]4)CCO3)n2)cc1 [Compound 86],100 to 1000
13,C[C@@H]1CN(c2ccc(-c3cc4nccnc4c(OC[C@@H]4CN(S(C)(=O)=O)CCO4)n3)cc2)C[C@H](C)O1 [Compound 19],100 to 1000
14,CC(C)(O)C1CCN(c2ccc(-c3cc4nccnc4c(OC[C@@H]4CN(S(C)(=O)=O)CCO4)n3)cc2)CC1 [Compound 22],1 to 100
15,O=S(=O)(C1CC1)N1CCO[C@H](COc2nc(-c3ccc(N4CCOCC4)cc3)cc3nccnc23)C1 [Compound 83],1 to 100
16,CN(C)c1ccc(-c2cc3nccnc3c(OC[C@@H]3CN(C(=O)c4cccnc4)CCO3)n2)cc1 [Compound 78],1 to 100
17,CN(C)c1ccc(-c2cc3nccnc3c(OC[C@@H]3CN(C(=O)CCC#N)CCO3)n2)cc1 [Compound 77],100 to 1000
18,COC1CCN(c2ccc(-c3cc4nccnc4c(OC[C@@H]4CN(C(C)=O)CCO4)n3)cc2)CC1 [Compound 48],100 to 1000
19,COc1cc(-c2cc3nccnc3c(OC[C@@H]3CN(S(C)(=O)=O)CCO3)n2)ccc1OCCN(C)C [Compound 126],100 to 1000
20,CNc1ccc(-c2cc3nccnc3c(OC[C@@H]3CN(C(=O)[C@H]4CCCO4)CCO3)n2)cc1 [Compound 51],100 to 1000
21,CS(=O)(=O)N1CCC(c2ccc(-c3cc4nccnc4c(O[C@@H]4CCOC4)n3)cc2)CC1 [Compound 124],1 to 100
22,CN1CCN(c2ccc(-c3cc4nccnc4c(OC[C@@H]4CN(S(N)(=O)=O)CCO4)n3)cc2)CC1 [Compound 64],100 to 1000

row,Structure (SMILES),IC50 [nM]
1,CS(=O)(=O)N1CCO[C@H](COc2nc(-c3ccc4ncccc4c3)cc3nccnc23)C1 [Compound 111],100 to 1000
2,CN(C)c1ccc(-c2cc3nccnc3c(OC[C@@H]3CN(C(=O)c4cnn(C)c4)CCO3)n2)cc1 [Compound 87],100 to 1000
3,CC(=O)N1CCO[C@H](COc2nc(-c3ccc(N4CCN(CCO)CC4)cc3)cc3nccnc23)C1 [Compound 49],100 to 1000
4,COC1CCN(c2ccc(-c3cc4nccnc4c(OC[C@@H]4CN(S(C)(=O)=O)CCO4)n3)cc2)CC1 [Compound 31],1 to 100
5,CN(C)c1ccc(-c2cc3nccnc3c(OC[C@@H]3CN(C(=O)C4CC(F)(F)C4)CCO3)n2)cc1 [Compound 71],100 to 1000
6,CC(=O)N1CCN(c2ccc(-c3cc4nccnc4c(OC[C@@H]4CN(S(C)(=O)=O)CCO4)n3)cc2)CC1 [Compound 122],1 to 100
7,CN1CCC(c2ccc(-c3cc4nccnc4c(OC[C@@H]4CN(S(C)(=O)=O)CCO4)n3)cc2)CC1 [Compound 8],100 to 1000
8,Cn1ccc2cc(-c3cc4nccnc4c(OC[C@@H]4CN(S(C)(=O)=O)CCO4)n3)ccc21 [Compound 39],1 to 100
9,CC(=O)N1CCO[C@H](COc2nc(-c3ccc(N4CCOCC4)cc3)cc3nccnc23)C1 [Compound 24],100 to 1000
10,NS(=O)(=O)N1CCO[C@H](COc2nc(-c3ccc(N4CCOCC4)cc3)cc3nccnc23)C1 [Compound 62],1 to 100
11,CN(C)c1ccc(-c2cc3nccnc3c(OC3CCCOC3)n2)cc1 (stereo not shown) [Compound 127],1 to 100
12,CN(C)c1ccc(-c2cc3nccnc3c(OC[C@@H]3CN(S(=O)(=O)CCN4CC[C@@H](O)C4)CCO3)n2)cc1 [Compound 102],100 to 1000
13,CN(CC#N)CCS(=O)(=O)N1CCO[C@H](COc2nc(-c3ccc(N(C)C)cc3)cc3nccnc23)C1 [Compound 104],100 to 1000
14,CC1CN(c2ccc(-c3cc4nccnc4c(OC[C@@H]4CN(S(C)(=O)=O)CCO4)n3)cc2)CCO1 (stereo partly shown) [Compound 18],1 to 100
15,CC(=O)N1CCC(c2ccc(-c3cc4nccnc4c(OC[C@@H]4CN(C(C)=O)CCO4)n3)cc2)CC1 [Compound 54],100 to 1000
16,CS(=O)(=O)N1CCO[C@H](COc2nc(-c3ccc4c(c3)OCO4)cc3nccnc23)C1 [Compound 110],100 to 1000
17,CCN(CC)c1ccc(-c2cc3nccnc3c(OC[C@@H]3CN(C(C)=O)CCO3)n2)cc1 [Compound 131],1 to 100
18,CS(=O)(=O)N1CCO[C@H](COc2nc(-c3ccc(C4CCOCC4)cc3)cc3nccnc23)C1 [Compound 11],1 to 100
19,NC(=O)N1CCO[C@H](COc2nc(-c3ccc(N4CCOCC4)cc3)cc3nccnc23)C1 [Compound 63],100 to 1000
20,"CS(=O)(=O)N1CCO[C@H](COc2nc(-c3ccc(C4CCN(CCO)CC4)cc3)cc3nccnc23)C1 [Compound 58, (S)-2-(4-(4-(5-((4-(methylsulfonyl)morpholin-2-yl)methoxy)pyrido[3,4-b]pyrazin-7-yl)phenyl)piperidin-1-yl)ethanol]",100 to 1000
21,CN1CCN(c2ccc(-c3cc4nccnc4c(O[C@@H]4CCOC4)n3)cc2)CC1 [Compound 125],1 to 100
22,CNc1ccc(-c2cc3nccnc3c(OC[C@@H]3CN(S(C)(=O)=O)CCO3)n2)cc1F [Compound 52],1 to 100

row,Structure (SMILES),IC50 [nM]
1,CNc1ccc(-c2cc3nccnc3c(OC[C@@H]3CN(C(=O)[C@H]4CCOC4)CCO3)n2)cc1 [Compound 50],100 to 1000
2,CS(=O)(=O)N1CCO[C@H](COc2nc(-c3ccc(N4CCNCC4)cc3)cc3nccnc23)C1 [Compound 14],100 to 1000
3,CCS(=O)(=O)N1CCO[C@H](COc2nc(-c3ccc(N(C)C)cc3)cc3nccnc23)C1 [Compound 88],1 to 100
4,"Cc1nccn1CCS(=O)(=O)N1CCO[C@H](COc2nc(-c3ccc(N(C)C)cc3)cc3nccnc23)C1 [Compound 101, (S)—N,N-dimethyl-4-(5-((4-(2-(2-methyl-1H-imidazol-1-yl)ethylsulfonyl)morpholin-2-yl)methoxy)pyrido[4,3-b]pyrazin-7-yl)aniline]",100 to 1000
5,CS(=O)(=O)N1CCO[C@H](COc2nc(-c3ccc(N4CCN(CCO)CC4)cc3)cc3nccnc23)C1 [Compound 27],100 to 1000
6,CCS(=O)(=O)N1CCN(c2ccc(-c3cc4nccnc4c(OC[C@@H]4CN(C(C)=O)CCO4)n3)cc2)CC1 [Compound 25],100 to 1000
7,COCCS(=O)(=O)N1CCO[C@H](COc2nc(-c3ccc(N4CCOCC4)cc3)cc3nccnc23)C1 [Compound 66],100 to 1000
8,Cn1ncc2cc(-c3cc4nccnc4c(OC[C@@H]4CN(S(C)(=O)=O)CCO4)n3)ccc21 [Compound 105],1 to 100
9,Cn1ccc2ccc(-c3cc4nccnc4c(OC[C@@H]4CN(S(C)(=O)=O)CCO4)n3)cc21 [Compound 120],1 to 100
10,CNS(=O)(=O)N1CCO[C@H](COc2nc(-c3ccc(N4CCOCC4)cc3)cc3nccnc23)C1 [Compound 55],100 to 1000
11,CC(C)C(=O)N1CCO[C@H](COc2nc(-c3ccc(N(C)C)cc3)cc3nccnc23)C1 [Compound 68],100 to 1000
12,NS(=O)(=O)N1CCO[C@H](COc2nc(-c3ccc(N4CCC(F)(F)CC4)cc3)cc3nccnc23)C1 [Compound 29],100 to 1000
13,COCCN1CCC(c2ccc(-c3cc4nccnc4c(OC[C@@H]4CN(S(C)(=O)=O)CCO4)n3)cc2)CC1 [Compound 59],100 to 1000
14,CN(C)c1ccc(-c2cc3nccnc3c(OC[C@@H]3CN(C(=O)[C@@H]4CCOC4)CCO3)n2)cc1 [Compound 72],100 to 1000
15,"O=C(C(F)F)N1CCO[C@H](COc2nc(-c3ccc(N4CCNCC4)cc3)cc3nccnc23)C1 [Compound 6, (S)-2,2-difluoro-1-(2-((7-(4-(piperazin-1-yl)phenyl)pyrido[4,3-b]pyrazin-5-yloxy)methyl)morpholino)ethanone]",100 to 1000
16,CN(C)c1ccc(-c2cc3nccnc3c(OC[C@@H]3CN(S(=O)(=O)c4cccnc4)CCO3)n2)cc1 [Compound 92],1 to 100
17,CN(C)c1ccc(-c2cc3nccnc3c(OC[C@@H]3CN(C(=O)C4CCOCC4)CCO3)n2)cc1 [Compound 73],100 to 1000
18,CN(C)c1ccc(-c2cc3nccnc3c(OC[C@@H]3CN(S(=O)(=O)CCN4CC[C@H](O)C4)CCO3)n2)cc1 [Compound 103],100 to 1000
19,CN(C)c1ccc(-c2cc3nccnc3c(OC[C@@H]3CN(C(N)=O)CCO3)n2)cc1 [Compound 136],1 to 100
20,CCS(=O)(=O)N1CCC(c2ccc(-c3cc4nccnc4c(OC[C@@H]4CN(C(C)=O)CCO4)n3)cc2)CC1 [Compound 23],100 to 1000
